Measured values taken from patent US9248130B2, “Methods and compositions for treating thyroid-related medical conditions with reduced folates” (priority 2009, dated 2016).

Legend:
Type in all cases: in vivo, human
[1] = Physical, behavioral and social skills of patient with cerebrospinal folate deficiency (case report); conditions: patient Example 2; after treatment
[2] = Cerebrospinal folate levels in patient with cerebrospinal folate deficiency (case report); conditions: patient Example 2; folinic acid 5 mg twice per day; within approximately four months; rose from 32 L; preferred range 40-128
Procedure: Example 1 was tested for cerebrospinal folate deficiency approximately four months after Example 2's testing. […] Studies have shown that the earlier the anemias associated with cerebrospinal folate deficiency are addressed, the better the adversely impacted individual can overcome more long-term effects of the associated folate deficiency.
After Example 2's diagnosis, Example 2 was placed on 5-methyltetrahydrofolate in the form of folinic acid (5 mg twice per day).

[3] = Hematological response (reticulocytes) in hypothyroid infant patient (case report); conditions: patient Example 1; additional nutritional supplement containing 2 mcg of vitamin B12
Excerpt: Example 1 and Example 2 received different nutritional supplementation with respect to vitamin B12. Although Example 2 did receive the same infant milk formula that Example 1 received, which infant milk formula contained vitamin B12, Example 2 received less of the infant milk formula than Example 1, and Example 2 received in lieu of the infant milk formula more of the breast milk from the hypothyroid […]. Example 1 also received an additional multivitamin nutritional supplement that included 2 mcg of vitamin B12.

Row | Molecule | physical, behavioral and social skills [1] | cerebrospinal folate levels [2] | hematological response: reticulocytes [3]
1 | Nc1nc2c(c(=O)[nH]1)N(C=O)C(CNc1ccc(C(=O)N[C@@H](CCC(=O)O)C(=O)O)cc1)CN2 (stereo partly drawn) [folinic acid, 6(R,S)-5-formyltetrahydrofolate] | showed improvement | approximately 88 | 
2 | cobalamin [vitamin B12] |  |  | moving from below normal to normal
